Experimental data reported in publication PMC10454409, “Hybrids of Sterically Hindered Phenols and Diaryl Ureas: Synthesis, Switch from Antioxidant Activity to ROS Generation and Induction of Apoptosis” (International Journal of Molecular Sciences, 2023).
Read-outs that look alike come from different tables or passages of the source.

What was measured:
Format in all cases: cell-based
[1] = test system: MCF-7 cells (human breast adenocarcinoma); assay: MTT cytotoxicity test, MCF-7; settings: Homo sapiens, MCF7, MTT test; 24 h incubation per text, 48 h per method
Procedure: (§1) The cytotoxic effect on cells was determined using the colorimetric method of cell proliferation—the MTT test. NADP-H-dependent cellular oxidoreductase enzymes can, under certain conditions, reflect the number of viable cells. These enzymes are able to reduce the tetrazolium dye (MTT)-3-(4,5-dimethylthiazol-2-yl)-2,5-diphenyl-tetrazolium bromide to insoluble blue-violet formazan, which crystallizes inside the cell. The amount of formazan formed is proportional to the number of cells with active metabolism.
Formazan crystals were added to 100 µL of DMSO in each well. Optical density was recorded at 540 nm on an in vitro logic microplate reader (Russia). The experiments for all compounds were repeated in triplicate.

[2] = test system: M-HeLa cells (human cervix epithelioid carcinoma); assay: MTT cytotoxicity test, M-HeLa; settings: Homo sapiens, M-HeLa; MTT test; 24 h incubation per text, 48 h per method
From the text: (§2) For the experiments, we used tumor cell cultures M-HeLa clone 11 (epithelioid carcinoma of the cervix, subline HeLa., clone M-HeLa), HuTu 80 (human duodenal adenocarcinoma) and MCF7 (human breast adenocarcinoma (pleural fluid)) from the collection of the Institute of Cytology, Russian Academy of Sciences (St. Petersburg); human liver cells (Chang liver) from the collection of the Research Institute of Virology at the Russian Academy of Medical Sciences (Moscow); and SH-SY5Y (neuroblastoma)from the Laboratory of Tumor Cell Genetics at the Scientific Research Institute of Carcinogenesis N.N. Blokhin National Medical Research Center of Oncology.
as §1
(§3) Cells were seeded on a 96-well Nunc plate at a concentration of 5 × 10^3 cells per well in a volume of 100 μL of medium and cultured in a CO2 incubator at 37 °C until a monolayer was formed. […] After 48 h, the nutrient medium was removed from the plates and 100 µL of the nutrient medium without serum with MTT at a concentration of 0.5 mg/mL was added and incubated for 4 h at 37 °C. Formazan crystals were […] 100 µL of DMSO in each well. Optical density was recorded at 540 nm on an in vitro logic microplate reader (Russia). The experiments for all compounds were repeated in triplicate.
(§4) IC50 values were estimated using the Quest Graph IC50 Calculator (AAT Bioquest, Inc., Sunnyvale, CA, USA) (Version 2022) (accessed on 25 June 2022).

[3] = test system: SH-SY5Y cells (neuroblastoma); assay: MTT cytotoxicity test, SH-SY5Y; settings: Homo sapiens, SH-SY5Y; MTT test; 24 h incubation per text, 48 h per method
From the text: as §2, §1, §3, §4

[4] = test system: HuTu 80 cells (human duodenal adenocarcinoma); assay: MTT cytotoxicity test, HuTu 80; settings: Homo sapiens
From the text: as §2, §1, §3, §4

[5] = HuTu80, read-out: IC50, HuTu 80
[6] = HuTu80, MTT test, 24 h incubation per text, 48 h per method, read-out: IC50, HuTu 80

Measured: IC50

CCOP(=O)(OCC)C(c1cc(C(C)(C)C)c(O)c(C(C)(C)C)c1)c1ccc(NC(=O)Nc2ccc(C)cc2)nc1NC(=O)Nc1ccc(C)cc1 (centres unmarked) [9b]
> 70 µM: [1] | [2] | [3] | [4]; [5]

CC(C)(C)c1cc(C(c2ccc(NC(=O)Nc3ccc(Cl)cc3)nc2NC(=O)Nc2ccc(Cl)cc2)P(=O)(Oc2ccccc2)Oc2ccccc2)cc(C(C)(C)C)c1O (centres unmarked) [11d]
> 70 µM: [1] | [2] | [3] | [4]; [5]

Cc1cccc(NC(=O)Nc2ccc(C(c3cc(C(C)(C)C)c(O)c(C(C)(C)C)c3)P(=O)(Oc3ccccc3)Oc3ccccc3)c(NC(=O)Nc3cccc(C)c3)n2)c1 (centres unmarked) [8d]
> 70 µM: [1] | [2] | [3] | [4]; [5]

CC(C)OP(=O)(OC(C)C)C(c1cc(C(C)(C)C)c(O)c(C(C)(C)C)c1)c1ccc(NC(=O)Nc2ccccc2)nc1NC(=O)Nc1ccccc1 (centres unmarked) [5c]
> 70 µM: [1] | [2] | [3] | [4]; [6]

Cc1cccc(NC(=O)Nc2ccc(C(c3cc(C(C)(C)C)c(O)c(C(C)(C)C)c3)P(=O)(OC(C)C)OC(C)C)c(NC(=O)Nc3cccc(C)c3)n2)c1 (centres unmarked) [8c]
> 70 µM: [1] | [2] | [3] | [4]; [6]

CC(C)(C)c1cc(C(c2ccc(NC(=O)Nc3ccccc3)nc2NC(=O)Nc2ccccc2)P(=O)(Oc2ccccc2)Oc2ccccc2)cc(C(C)(C)C)c1O (centres unmarked) [5d]
> 70 µM: [1] | [2] | [3] | [4]; [5]

CCOP(=O)(OCC)C(c1cc(C(C)(C)C)c(O)c(C(C)(C)C)c1)c1ccc(NC(=S)Nc2ccccc2)cc1NC(=S)Nc1ccccc1 (centres unmarked) [19b]
> 70 µM: [1] | [2] | [3] | [4]; [5]

CC(C)(C)c1cc(C(c2ccc(NC(=O)Nc3ccc(Cl)cc3)cc2NC(=O)Nc2ccc(Cl)cc2)P(=O)(Oc2ccccc2)Oc2ccccc2)cc(C(C)(C)C)c1O (centres unmarked) [16d]
> 70 µM: [1] | [2] | [3] | [4]; [5]

COc1ccc(NC(=O)Nc2ccc(C(c3cc(C(C)(C)C)c(O)c(C(C)(C)C)c3)P(=O)(OC)OC)c(NC(=O)Nc3ccc(OC)cc3)n2)cc1 (centres unmarked) [10a]
> 70 µM: [1] | [2] | [3] | [4]; [5]

Cc1ccc(NC(=O)Nc2ccc(C(c3cc(C(C)(C)C)c(O)c(C(C)(C)C)c3)P(=O)(Oc3ccccc3)Oc3ccccc3)c(NC(=O)Nc3ccc(C)cc3)c2)cc1 (centres unmarked) [14d]
> 70 µM: [1] | [2] | [3] | [4]; [5]

COc1ccc(NC(=O)Nc2ccc(C(c3cc(C(C)(C)C)c(O)c(C(C)(C)C)c3)P(=O)(OC(C)C)OC(C)C)c(NC(=O)Nc3ccc(OC)cc3)n2)cc1 (centres unmarked) [10c]
> 70 µM: [1] | [2] | [3] | [4]; [6]

CC(C)(C)c1cc(C(c2ccc(NC(=S)Nc3ccccc3)nc2N)P(=O)(Oc2ccccc2)Oc2ccccc2)cc(C(C)(C)C)c1O (centres unmarked) [18d]
> 70 µM: [1] | [2] | [3] | [4]; [5]

CCOP(=O)(OCC)C(c1cc(C(C)(C)C)c(O)c(C(C)(C)C)c1)c1ccc(NC(=O)Nc2ccccc2)cc1NC(=O)Nc1ccccc1 (centres unmarked) [6b]
> 70 µM: [1] | [2] | [3] | [4]; [5]

CCOP(=O)(OCC)C(c1cc(C(C)(C)C)c(O)c(C(C)(C)C)c1)c1ccc(NC(=S)Nc2ccccc2)nc1N (centres unmarked) [18b]
> 70 µM: [1] | [2] | [3] | [4]; [5]

CC(C)OP(=O)(OC(C)C)C(c1cc(C(C)(C)C)c(O)c(C(C)(C)C)c1)c1ccc(NC(=O)Nc2ccc([N+](=O)[O-])cc2)nc1NC(=O)Nc1ccc([N+](=O)[O-])cc1 (centres unmarked) [12c]
> 70 µM: [1] | [2] | [3] | [4]; [5]

CC(C)(C)c1cc(C(c2ccc(NC(=O)Nc3ccc([N+](=O)[O-])cc3)nc2NC(=O)Nc2ccc([N+](=O)[O-])cc2)P(=O)(Oc2ccccc2)Oc2ccccc2)cc(C(C)(C)C)c1O (centres unmarked) [12d]
> 70 µM: [1] | [2] | [3] | [4]; [5]

COc1ccc(NC(=O)Nc2ccc(C(c3cc(C(C)(C)C)c(O)c(C(C)(C)C)c3)P(=O)(Oc3ccccc3)Oc3ccccc3)c(NC(=O)Nc3ccc(OC)cc3)n2)cc1 (centres unmarked) [10d]
> 70 µM: [1] | [2] | [3] | [4]; [5]

CC(C)(C)c1cc(C(c2ccc(NC(=O)Nc3ccc([N+](=O)[O-])cc3)cc2NC(=O)Nc2ccc([N+](=O)[O-])cc2)P(=O)(Oc2ccccc2)Oc2ccccc2)cc(C(C)(C)C)c1O (centres unmarked) [17d]
> 70 µM: [1] | [2] | [3] | [4]; [5]

COc1ccc(NC(=O)Nc2ccc(C(c3cc(C(C)(C)C)c(O)c(C(C)(C)C)c3)P(=O)(Oc3ccccc3)Oc3ccccc3)c(NC(=O)Nc3ccc(OC)cc3)c2)cc1 (centres unmarked) [15d]
> 70 µM: [1] | [2] | [3] | [4]; [5]

Cc1ccc(NC(=O)Nc2ccc(C(c3cc(C(C)(C)C)c(O)c(C(C)(C)C)c3)P(=O)(OC(C)C)OC(C)C)c(NC(=O)Nc3ccc(C)cc3)n2)cc1 (centres unmarked) [9c]
> 70 µM: [1] | [2] | [3] | [4]; [6]

CC(C)(C)c1cc(C(c2ccc(NC(=O)Nc3ccccc3)cc2NC(=O)Nc2ccccc2)P(=O)(Oc2ccccc2)Oc2ccccc2)cc(C(C)(C)C)c1O (centres unmarked) [6d]
> 70 µM: [1] | [2] | [3] | [4]; [5]

COP(=O)(OC)C(c1cc(C(C)(C)C)c(O)c(C(C)(C)C)c1)c1ccc(NC(=O)Nc2ccc(C)cc2)cc1NC(=O)Nc1ccc(C)cc1 (centres unmarked) [14a]
> 70 µM: [1] | [2] | [3] | [4]; [5]

COc1ccc(NC(=O)Nc2ccc(C(c3cc(C(C)(C)C)c(O)c(C(C)(C)C)c3)P(=O)(OC)OC)c(NC(=O)Nc3ccc(OC)cc3)c2)cc1 (centres unmarked) [15a]
> 70 µM: [1] | [2] | [3] | [4]; [5]

Cc1cccc(NC(=O)Nc2ccc(C(c3cc(C(C)(C)C)c(O)c(C(C)(C)C)c3)P(=O)(Oc3ccccc3)Oc3ccccc3)c(NC(=O)Nc3cccc(C)c3)c2)c1 (centres unmarked) [13d]
> 70 µM: [1] | [2] | [3] | [4]; [5]

COP(=O)(OC)C(c1cc(C(C)(C)C)c(O)c(C(C)(C)C)c1)c1ccc(NC(=O)Nc2ccc(Cl)cc2)cc1NC(=O)Nc1ccc(Cl)cc1 (centres unmarked) [16a]
> 70 µM: [1] | [2] | [3] | [4]; [5]

CC(C)OP(=O)(OC(C)C)C(c1cc(C(C)(C)C)c(O)c(C(C)(C)C)c1)c1ccc(NC(=O)Nc2ccc(Cl)cc2)nc1NC(=O)Nc1ccc(Cl)cc1 (centres unmarked) [11c]
> 70 µM: [1] | [2] | [3] | [4]; [6]

COP(=O)(OC)C(c1cc(C(C)(C)C)c(O)c(C(C)(C)C)c1)c1ccc(NC(=O)Nc2cccc(C)c2)nc1NC(=O)Nc1cccc(C)c1 (centres unmarked) [8a]
> 70 µM: [1] | [2] | [3] | [4]; [5]

COP(=O)(OC)C(c1cc(C(C)(C)C)c(O)c(C(C)(C)C)c1)c1ccc(NC(=O)Nc2ccc(C)cc2)nc1NC(=O)Nc1ccc(C)cc1 (centres unmarked) [9a]
> 70 µM: [1] | [2] | [3] | [4]; [5]

COP(=O)(OC)C(c1cc(C(C)(C)C)c(O)c(C(C)(C)C)c1)c1ccc(NC(=O)Nc2ccccc2)nc1NC(=O)Nc1ccccc1 (centres unmarked) [5a]
> 70 µM: [1] | [2] | [3] | [4]; [5]

CC(C)(C)c1cc(C(c2ccc(NC(=S)Nc3ccccc3)cc2NC(=S)Nc2ccccc2)P(=O)(Oc2ccccc2)Oc2ccccc2)cc(C(C)(C)C)c1O (centres unmarked) [19d]
> 70 µM: [1] | [2] | [3] | [4]; [5]

COP(=O)(OC)C(c1cc(C(C)(C)C)c(O)c(C(C)(C)C)c1)c1ccc(NC(=S)Nc2ccccc2)nc1N (centres unmarked) [18a]
> 70 µM: [1] | [2] | [3] | [4]; [5]

COP(=O)(OC)C(c1cc(C(C)(C)C)c(O)c(C(C)(C)C)c1)c1ccc(NC(=O)Nc2ccccc2)cc1NC(=O)Nc1ccccc1 (centres unmarked) [6a]
> 70 µM: [1] | [2] | [3] | [4]; [5]
